These results are taken from PubChem BioAssay AID1745844 (Carcinogenic Potency Database (CPDB), 2022).

Calls of active or inactive are those of the source. No rule for the calls is given here.

For orientation: TD50 means the dose at which the toxic effect under study appears in half of the subjects.

In the data set the test system is rodent lifetime carcinogenesis bioassay, tumor incidence TD50. The experiment in a line: chronic cancer bioassays in animals – CPDB, compiled studies (AID 1745844).
The mark [1] stands for this setting: rat, strain Fischer 344, females, in feed, site: any site (literature study), lesion: several types, types named in the paper, dosed 103 weeks, study length 104 weeks.

For the compound `CNc1ncnc2c1ncn2[C@@H]1O[C@H](CO)[C@@H](O)[C@H]1O`, the TD50 is 364 mg/kg/day (inactive) (mouse, strain Swiss CD-1, females, in drinking water, site: liver, lesion: several types, types named in the paper, dosed 34 weeks, study length 115 weeks); 108 mg/kg/day (inactive) (mouse, strain Swiss CD-1, males, in drinking water, site: liver, lesion: several types, types named in the paper, dosed 34 weeks, study length 118 weeks); 55.6 mg/kg/day (inactive) (mouse, strain Swiss CD-1, males, in drinking water, site: lung, lesion: one or several types, types not named, dosed 34 weeks, study length 118 weeks). For the same compound, the carcinogen call (mouse, strain Swiss CD-1, females, in drinking water, site: lung, lesion: one or several types, types not named, dosed 34 weeks, study length 115 weeks) was “negative (inactive)”.
Turning to `CCNC(=O)N(CCO)N=O`, the TD50 (rat, strain Fischer 344, females, in drinking water, site: mammary tissue, wider than the gland, lesion: carcinoma, dosed 30 weeks, study length 104 weeks) is 0.501 mg/kg/day; the TD50 (rat, strain Fischer 344, males, in drinking water, site: liver, lesion: one or several types, types not named, dosed 30 weeks, study length 104 weeks) was found to be 1.09 mg/kg/day; the TD50 (rat, strain Fischer 344, males, in drinking water, site: lung, lesion: one or several types, types not named, dosed 30 weeks, study length 104 weeks) is 0.446 mg/kg/day; the TD50 (rat, strain Fischer 344, males, in drinking water, site: nervous system, lesion: one or several types, types not named, dosed 30 weeks, study length 104 weeks) came out at 0.754 mg/kg/day; the TD50 (rat, strain Fischer 344, males, in drinking water, site: skin, lesion: one or several types, types not named, dosed 30 weeks, study length 104 weeks) was 0.641 mg/kg/day; the TD50 (rat, strain Fischer 344, males, in drinking water, site: tunica vaginalis, lesion: mesothelioma, dosed 30 weeks, study length 104 weeks) is 0.576 mg/kg/day.
Consider `CN(C)C(=O)Nc1cccc(C(F)(F)F)c1`, for which the TD50 was 369 mg/kg/day (inactive) (mouse, strain B6C3F1, females, in feed, site: any site (literature study), lesion: several types, types named in the paper, dosed 103 weeks, study length 103 weeks); 1230 mg/kg/day (mouse, strain B6C3F1, females, in feed, site: liver, lesion: hepatocellular adenoma + hepatocellular carcinoma + neoplastic nodule, dosed 103 weeks, study length 103 weeks); 265 mg/kg/day (mouse, strain B6C3F1, males, in feed, site: any site (literature study), lesion: several types, types named in the paper, dosed 103 weeks, study length 103 weeks); 229 mg/kg/day (mouse, strain B6C3F1, males, in feed, site: liver, lesion: hepatocellular adenoma + hepatocellular carcinoma + neoplastic nodule, dosed 103 weeks, study length 103 weeks); 229 mg/kg/day (mouse, strain B6C3F1, males, in feed, site: liver, lesion: hepatocellular adenoma + hepatocellular carcinoma, dosed 103 weeks, study length 103 weeks); 1420 mg/kg/day (mouse, strain B6C3F1, males, in feed, site: lung, lesion: alveolar/bronchiolar adenoma + alveolar/bronchiolar carcinoma, dosed 103 weeks, study length 103 weeks). For the same compound, the TD50 was 55.4 mg/kg/day (rat, strain Fischer 344, males, in feed, site: liver, lesion: hepatocellular adenoma + hepatocellular carcinoma + neoplastic nodule, dosed 103 weeks, study length 104 weeks) and 55.4 mg/kg/day (inactive) (rat, strain Fischer 344, males, in feed, site: liver, lesion: neoplastic nodule, dosed 103 weeks, study length 104 weeks). Also, the carcinogen call under setting [1] is “negative (inactive)”.
As for `[O]=[Nb](=[O])[OH]`, the carcinogen call was “negative (inactive)” (mouse, strain Charles River CD1, both sexes, in drinking water, site: any site (literature study), lesion: malignant tumor, dosed 135 weeks, study length 135 weeks); “negative (inactive)” (mouse, strain Charles River CD1, both sexes, in drinking water, site: any site (literature study), lesion: one or several types, types not named, dosed 135 weeks, study length 135 weeks); “negative (inactive)” (mouse, strain Charles River CD1, both sexes, in drinking water, site: liver, lesion: one or several types, types not named, dosed 135 weeks, study length 135 weeks); “negative (inactive)” (mouse, strain Charles River CD1, both sexes, in drinking water, site: lung, lesion: one or several types, types not named, dosed 135 weeks, study length 135 weeks).
Take `CCCCN(N)CCCC`: the TD50 (mouse, strain Swiss albino, females, in drinking water, site: forestomach, lesion: several types, types named in the paper, dosed 109 weeks, study length 109 weeks) was 71.5 mg/kg/day; the TD50 (mouse, strain Swiss albino, females, in drinking water, site: forestomach, lesion: squamous-cell carcinoma, dosed 109 weeks, study length 109 weeks) stood at 152 mg/kg/day; the TD50 (mouse, strain Swiss albino, females, in drinking water, site: forestomach, lesion: squamous-cell papilloma, dosed 109 weeks, study length 109 weeks) came to 95.9 mg/kg/day; the TD50 (mouse, strain Swiss albino, females, in drinking water, site: lung, lesion: adenocarcinoma, dosed 109 weeks, study length 109 weeks) amounted to 133 mg/kg/day; the TD50 (mouse, strain Swiss albino, females, in drinking water, site: lung, lesion: adenoma, dosed 109 weeks, study length 109 weeks) was 51.5 mg/kg/day; the TD50 (mouse, strain Swiss albino, females, in drinking water, site: lung, lesion: several types, types named in the paper, dosed 109 weeks, study length 109 weeks) was 55.5 mg/kg/day. For the same compound, the TD50 was 84.2 mg/kg/day (mouse, strain Swiss albino, males, in drinking water, site: forestomach, lesion: several types, types named in the paper, dosed 109 weeks, study length 109 weeks); 317 mg/kg/day (mouse, strain Swiss albino, males, in drinking water, site: forestomach, lesion: squamous-cell carcinoma, dosed 109 weeks, study length 109 weeks); 109 mg/kg/day (mouse, strain Swiss albino, males, in drinking water, site: forestomach, lesion: squamous-cell papilloma, dosed 109 weeks, study length 109 weeks); 189 mg/kg/day (mouse, strain Swiss albino, males, in drinking water, site: liver, lesion: hepatoma, benign, dosed 109 weeks, study length 109 weeks); 105 mg/kg/day (mouse, strain Swiss albino, males, in drinking water, site: liver, lesion: several types, types named in the paper, dosed 109 weeks, study length 109 weeks); 82.3 mg/kg/day (mouse, strain Swiss albino, males, in drinking water, site: lung, lesion: adenocarcinoma, dosed 109 weeks, study length 109 weeks). Moreover, the TD50 (mouse, strain Swiss albino, males, in drinking water, site: lung, lesion: adenoma, dosed 109 weeks, study length 109 weeks) was 44.9 mg/kg/day and the TD50 (mouse, strain Swiss albino, males, in drinking water, site: lung, lesion: several types, types named in the paper, dosed 109 weeks, study length 109 weeks) is 38.1 mg/kg/day. The carcinogen call (mouse, strain Swiss albino, females, in drinking water, site: liver, lesion: angioma, dosed 109 weeks, study length 109 weeks) was “negative (inactive)”.
For `Nc1ccc(N)c2c1C(=O)c1c(N)ccc(N)c1C2=O`, the TD50 by setting is: (mouse, strain B6C3F1, females, in feed, site: liver, lesion: hepatocellular adenoma, dosed 103 weeks, study length 106 weeks) 150 mg/kg/day (inactive); (mouse, strain B6C3F1, females, in feed, site: lung, lesion: alveolar/bronchiolar adenoma + alveolar/bronchiolar carcinoma, dosed 103 weeks, study length 106 weeks) 9310 mg/kg/day; (mouse, strain B6C3F1, males, in feed, site: any site (literature study), lesion: several types, types named in the paper, dosed 104 weeks, study length 105 weeks) 1290 mg/kg/day; (mouse, strain B6C3F1, males, in feed, site: liver, lesion: hepatocellular adenoma + hepatocellular carcinoma + neoplastic nodule, dosed 104 weeks, study length 105 weeks) 534 mg/kg/day; (mouse, strain B6C3F1, males, in feed, site: liver, lesion: hepatocellular adenoma + hepatocellular carcinoma, dosed 104 weeks, study length 105 weeks) 534 mg/kg/day; (mouse, strain B6C3F1, males, in feed, site: lung, lesion: alveolar/bronchiolar adenoma + alveolar/bronchiolar carcinoma, dosed 104 weeks, study length 105 weeks) 701 mg/kg/day. The TD50 runs as follows: (mouse, strain B6C3F1, males, in feed, site: lung, lesion: alveolar/bronchiolar adenoma, dosed 104 weeks, study length 105 weeks) 925 mg/kg/day; under setting [1], 130 mg/kg/day; (rat, strain Fischer 344, females, in feed, site: pancreatic islets, lesion: islet-cell carcinoma, dosed 103 weeks, study length 104 weeks) 291 mg/kg/day; (rat, strain Fischer 344, females, in feed, site: pituitary gland + pancreatic islets, lesion: carcinoma, NOS + islet-cell carcinoma, dosed 103 weeks, study length 104 weeks) 323 mg/kg/day; (rat, strain Fischer 344, females, in feed, site: urinary bladder, lesion: leiomyoma, dosed 103 weeks, study length 104 weeks) 1540 mg/kg/day; (rat, strain Fischer 344, females, in feed, site: urinary bladder, lesion: leiomyosarcoma + leiomyoma + squamous-cell carcinoma + squamous-cell papilloma + transitional-cell carcinoma + transitional-cell p, dosed 103 weeks, study length 104 weeks) 131 mg/kg/day. Also, the TD50 (rat, strain Fischer 344, females, in feed, site: urinary bladder, lesion: leiomyosarcoma + leiomyoma, dosed 103 weeks, study length 104 weeks) was 250 mg/kg/day; the TD50 (rat, strain Fischer 344, females, in feed, site: urinary bladder, lesion: leiomyosarcoma, dosed 103 weeks, study length 104 weeks) is 294 mg/kg/day; the TD50 (rat, strain Fischer 344, females, in feed, site: urinary bladder, lesion: squamous-cell carcinoma + squamous-cell papilloma, dosed 103 weeks, study length 104 weeks) is 664 mg/kg/day; the TD50 (rat, strain Fischer 344, females, in feed, site: urinary bladder, lesion: squamous-cell carcinoma, dosed 103 weeks, study length 104 weeks) is 1580 mg/kg/day; the TD50 (rat, strain Fischer 344, females, in feed, site: urinary bladder, lesion: squamous-cell papilloma, dosed 103 weeks, study length 104 weeks) was 1020 mg/kg/day; the TD50 (rat, strain Fischer 344, females, in feed, site: urinary bladder, lesion: transitional-cell carcinoma + transitional-cell papilloma, dosed 103 weeks, study length 104 weeks) is 198 mg/kg/day. Moreover, the TD50 (rat, strain Fischer 344, females, in feed, site: urinary bladder, lesion: transitional-cell carcinoma, dosed 103 weeks, study length 104 weeks) is 307 mg/kg/day; the TD50 (rat, strain Fischer 344, females, in feed, site: urinary bladder, lesion: transitional-cell papilloma, dosed 103 weeks, study length 104 weeks) is 317 mg/kg/day; the TD50 (rat, strain Fischer 344, males, in feed, site: any site (literature study), lesion: several types, types named in the paper, dosed 103 weeks, study length 104 weeks) worked out at 39.3 mg/kg/day; the TD50 (rat, strain Fischer 344, males, in feed, site: pancreatic islets, lesion: islet-cell adenoma + islet-cell carcinoma, dosed 103 weeks, study length 104 weeks) stood at 414 mg/kg/day; the TD50 (rat, strain Fischer 344, males, in feed, site: pancreatic islets, lesion: islet-cell adenoma, dosed 103 weeks, study length 104 weeks) was 810 mg/kg/day; the TD50 (rat, strain Fischer 344, males, in feed, site: subcutaneous tissue, lesion: sarcoma, NOS, dosed 103 weeks, study length 104 weeks) is 1830 mg/kg/day. The TD50 is, setting by setting: (rat, strain Fischer 344, males, in feed, site: testis, lesion: interstitial-cell tumor, dosed 103 weeks, study length 104 weeks) 100 mg/kg/day; (rat, strain Fischer 344, males, in feed, site: thyroid gland, lesion: c-cell adenoma + c-cell carcinoma, dosed 103 weeks, study length 104 weeks) 474 mg/kg/day; (rat, strain Fischer 344, males, in feed, site: thyroid gland, lesion: c-cell adenoma, dosed 103 weeks, study length 104 weeks) 529 mg/kg/day; (rat, strain Fischer 344, males, in feed, site: urinary bladder, lesion: leiomyosarcoma + leiomyoma + squamous-cell carcinoma + squamous-cell papilloma + transitional-cell carcinoma + transitional-cell p, dosed 103 weeks, study length 104 weeks) 89.3 mg/kg/day; (rat, strain Fischer 344, males, in feed, site: urinary bladder, lesion: leiomyosarcoma + leiomyoma, dosed 103 weeks, study length 104 weeks) 129 mg/kg/day; (rat, strain Fischer 344, males, in feed, site: urinary bladder, lesion: leiomyosarcoma, dosed 103 weeks, study length 104 weeks) 131 mg/kg/day. In addition, the TD50 is 803 mg/kg/day (rat, strain Fischer 344, males, in feed, site: urinary bladder, lesion: squamous-cell carcinoma + squamous-cell papilloma, dosed 103 weeks, study length 104 weeks); 1260 mg/kg/day (rat, strain Fischer 344, males, in feed, site: urinary bladder, lesion: squamous-cell papilloma, dosed 103 weeks, study length 104 weeks); 245 mg/kg/day (rat, strain Fischer 344, males, in feed, site: urinary bladder, lesion: transitional-cell carcinoma + transitional-cell papilloma, dosed 103 weeks, study length 104 weeks); 506 mg/kg/day (rat, strain Fischer 344, males, in feed, site: urinary bladder, lesion: transitional-cell carcinoma, dosed 103 weeks, study length 104 weeks); 370 mg/kg/day (rat, strain Fischer 344, males, in feed, site: urinary bladder, lesion: transitional-cell papilloma, dosed 103 weeks, study length 104 weeks).
